The test concerns primary invasive breast cancer. Briefly: Clinical tumor response (WHO criteria) in randomized Phase III neoadjuvant trial of letrozole versus tamoxifen; patients with profiled biopsies. It is filed as in vivo, human. Particulars: clinical outcome of patients with profiled pre-treatment biopsies; postmenopausal women; response by palpation at 4 months. From the text: Definitions of Objective Response Used in the Letrozole (FEMARA™) vs. Tamoxifen Comparison Study
1. Complete Response (CR): The disappearance of all known disease, determined by 2 observations not less than 4 weeks apart.
2. Partial Response (PR): A 50% or more decrease in total tumor size of the lesions which have been measured to determine the effect of therapy by 2 observations not less than 4 weeks apart. In addition there can be no appearance of new lesions or progression of any lesion.
4. Progressive Disease (PD): A 25% or more increase in the size of one or more measurable lesions, or the appearance of new lesions.
Clinical Response Assessment
The primary efficacy variable was tumor response, assessed by clinical examination using World Health Organization (WHO) criteria (see, WHO Handbook for Reporting Results of Cancer Treatment). It was defined as the percentage of patients in each treatment group with a CR or PR as determined clinically in the breast by palpation at 4 months. Possible responses were CR, PR, NC, PD or not assessable/not evaluable (NA/NE). Palpable ipsilateral axillary lymph nodal involvement downgraded a clinical CR in tumor. Other factors were also considered such the percentage of patients who underwent breast-conserving surgery (quadrantectomy/lumpectomy) instead of mastectomy. Patients who became inoperable, or who remained inoperable at 4 months, were counted as treatment failures.
Twenty-one RNA samples were extracted from 14-gauge needle core biopsies collected before initiation of neoadjuvant endocrine therapy from patients enrolled in a randomized Phase III trial of letrozole (FEMARA™, Novartis Pharma, Basal Switzerland) versus tamoxifen for postmenopausal women with primary invasive breast cancer ineligible for breast conserving surgery. RNA was extracted from an additional 30 primary breast adenocarcinomas collected in Sweden, one additional ESR1+breast tumor surgical biopsy, two HUVEC samples, two samples from glioblastoma cell line U373-MG and one MCF7 sample using Trizol (Life Technologies, Gaithersburg, Md.). The clinical samples were collected after informed consent had been obtained according to protocols approved by local ethics committees. RNA was purchased for two samples, an infiltrating Stage III duct carcinoma (Ambion, Austin, Tex.) and a pool of two normal breast tissues (Clontech, Palo Alto, Calif.). The total number of samples prepared was 59 including 53 breast cancer biopsies and one pooled normal breast sample. Total RNA was purified using QIAGEN RNEASY™ columns (Qiagen, Valencia, Calif.), processed and hybridized to the HUGENE™ FL 6800 Array (Affymetrix, Santa Clara, Calif.), as described by Lockhart et al., Nat. Biotechnol., Vol. 14, pp. 1675-1680 (1996).
In another aspect of the invention 136 breast biopsies from 53 patients were obtained. RNA was extracted from 116 biopsies. Expression profiles were generated for 43 biopsies from 35 patients. Predictive markers of endocrine therapy responsiveness in breast tumors were identified. The breakdown of the profiled biopsies from the pre-letrozole (FEMARA™) treatments and the patient's clinical outcome was as follows: four patients with CR, nine patients with PR, four patients with NC and four patients with PD.
For the group treated with tamoxifen there were no patients in the CR category, 10 patients with PR, seven patients with NC and four patients with PD.

Consider `CC/C(=C(\c1ccccc1)c1ccc(OCCN(C)C)cc1)c1ccccc1` [tamoxifen], for which the “patients with CR (complete response)” value is listed as “no patients”, the “patients with NC (no change)” value is listed as “seven”, the “patients with PD (progressive disease)” value is given as “four” and the “patients with PR (partial response)” value came to 10 patients.

With `N#Cc1ccc(C(c2ccc(C#N)cc2)n2cncn2)cc1` [letrozole], the “patients with CR (complete response)” value was “four”, the “patients with NC (no change)” value is reported as “four”, the “patients with PD (progressive disease)” value is reported as “four” and the “patients with PR (partial response)” value was “nine”.
